Reference: patent US20220412957A1, “METHODS OF TREATING CANCER PATIENTS WITH RAS NODE OR RTK TARGETED THERAPEUTIC AGENTS” (Celcuity Inc., priority 2019, published 2022)

Assays:
Format in all cases: cell-based, human
[1] = test system: LPA1-initiated signaling in HER2-negative/PI3K//ERK/MEK/RAF/mTOR Wild-Type breast tumor cell samples; experiment: impedance biosensor cell adhesion test, LPA1 agonist with RAS node inhibitors (Example 4); parameters: unit not given here
From the text: Tissue and cell samples: 28 HER2-negative/PI3K//ERK/MEK/RAF/mTOR Wild-Type breast tumor cell samples were studied. […] From these responses, the net amount of LPA1-initiated signaling involving PI3K-α, Class 1 PI3K-isoforms (pan-PI3K), Class 1 PI3K-isoforms and mTOR, Bcl-xL and Bcl-2, MEK, ERK, and RAF, individually and in combination, was quantified.
In this example, 14 of the 28 patient cell samples tested recorded output values with at least one of the targeted therapeutic(s) above 250. […] Five patients would be selected to receive treatment with gedatolisib, four would be selected to receive treatment with copanlisib, one patient would be selected to receive treatment with PLX7904, six patients would be selected to receive treatment with gedatolisib and PLX7904, seven patients would be selected to receive treatment with gedatolisib and ravoxertinib, nine patients would be selected to receive treatment with gedatolisib and trametinib, and 14 patients would be selected to receive treatment with gedatolisib and navitoclax.

[2] = test system: LPA1-initiated signaling in HER2-negative/PI3K wild-type breast tumor cell samples; experiment: impedance biosensor cell adhesion test, LPA1 agonist with HER2 inhibitor (Example 2); parameters: scale not given here
From the text: (§1) Tissue and cell samples: Eighteen HER2-negative/PI3K wild-type breast tumor cell samples were studied.
(§2) In this example, four of the eighteen patient cell samples tested recorded output values with the targeted therapeutic, neratinib, above 500. These four patients would thus be selected to receive treatment with neratinib, even though they are HER2-negative.

[3] = test system: S1P-initiated signaling in HER2-negative/PI3K wild-type breast tumor cell samples; experiment: impedance biosensor cell adhesion test, S1P agonist with HER2 inhibitor (Example 2); parameters: scale not given here
From the text: as §1, §2

[4] = sample C1838.01.155, cut-off 250
[5] = sample C1986.01.10, cut-off 250
[6] = sample C2090.01.14, cut-off 250
[7] = sample C2169.01.10, cut-off 250
[8] = sample C3091.01.13, cut-off 250
[9] = sample C3132.01.13, cut-off 250
[10] = sample C3311.01.10, cut-off 250
[11] = sample CL021.01.869, cut-off 250

`COc1c(OCCCN2CCOCC2)ccc2c1N=C(NC(=O)c1cnc(N)nc1)N1CCN=C21` [Copanlisib, copanlisib] was tested, and the output value ([1]; sample C1816.01.6, cut-off 250) was 374, the output value [1, 4] was 10 and the output value ([1]; sample C1918.01.5, cut-off 250) was 113. For the same molecule, the output value [1, 5] was 170, the output value [1, 6] was 103 and the output value ([1]; sample C2167.01.4, cut-off 250) was 67. It also gave an output value [1, 7] of 199, an output value ([1]; sample C2483.01.6, cut-off 250) of 113 and an output value ([1]; sample C2693.01.2, cut-off 250) of 46. It also gave an output value ([1]; sample C2697.01.4, cut-off 250) of 103, an output value ([1]; sample C2729.01.4, cut-off 250) of 72 and an output value ([1]; sample C2748.01.4, cut-off 250) of 55. For the same molecule, the output value ([1]; sample C2792.01.2, cut-off 250) was 98, the output value ([1]; sample C2794.01.9, cut-off 250) was 14 and the output value ([1]; sample C2868.01.6, cut-off 250) was 58. For the same molecule, the output value ([1]; sample C2991.01.7, cut-off 250) was 310, the output value [1, 8] was 156 and the output value ([1]; sample C3101.01.6, cut-off 250) was 70. The output value [1, 9] was 38, the output value [1, 10] was 430 and the output value ([1]; sample C3337.01.6, cut-off 250) was 240. For the same molecule, the output value ([1]; sample C3377.01.2, cut-off 250) was 86, the output value ([1]; sample C3507.01.5, cut-off 250) was 94 and the output value ([1]; sample C3730.01.9, cut-off 250) was 511. The output value ([1]; sample C3873.01.4, cut-off 250) was 199, the output value ([1]; sample C3957.01.6, cut-off 250) was 53 and the output value ([1]; sample C4005.01.2, cut-off 250) was 125. The output value [1, 11] was −259.
With `C[C@H](Nc1ccc2c(c1)OCCn1cc(N3C(=O)OC[C@H]3C(F)F)nc1-2)C(N)=O` [GDC-0077] the output value ([1]; sample C1816.01.6, cut-off 250) was −22, the output value [1, 4] was 38 and the output value ([1]; sample C1918.01.5, cut-off 250) was 38. For the same molecule, the output value [1, 5] was 62, the output value [1, 6] was 36 and the output value ([1]; sample C2167.01.4, cut-off 250) was −12. It also gave an output value [1, 7] of 34, an output value ([1]; sample C2483.01.6, cut-off 250) of 113 and an output value ([1]; sample C2693.01.2, cut-off 250) of −24. The output value ([1]; sample C2697.01.4, cut-off 250) was 31, the output value ([1]; sample C2729.01.4, cut-off 250) was 34 and the output value ([1]; sample C2748.01.4, cut-off 250) was 65. It also gave an output value ([1]; sample C2792.01.2, cut-off 250) of 43, an output value ([1]; sample C2794.01.9, cut-off 250) of −89 and an output value ([1]; sample C2868.01.6, cut-off 250) of −24. It also gave an output value ([1]; sample C2991.01.7, cut-off 250) of 55, an output value [1, 8] of 60 and an output value ([1]; sample C3101.01.6, cut-off 250) of 0. For the same molecule, the output value [1, 9] was 0, the output value [1, 10] was 14 and the output value ([1]; sample C3337.01.6, cut-off 250) was 139. For the same molecule, the output value ([1]; sample C3377.01.2, cut-off 250) was −161, the output value ([1]; sample C3507.01.5, cut-off 250) was −58 and the output value ([1]; sample C3730.01.9, cut-off 250) was −113. For the same molecule, the output value ([1]; sample C3873.01.4, cut-off 250) was 122, the output value ([1]; sample C3957.01.6, cut-off 250) was −10 and the output value ([1]; sample C4005.01.2, cut-off 250) was −12. It also gave an output value [1, 11] of −466.
`CCOc1cc2ncc(C#N)c(Nc3ccc(OCc4ccccn4)c(Cl)c3)c2cc1NC(=O)/C=C/CN(C)C` [Neratinib, neratinib] was tested, and the output value ([2]; sample C125, cut-off 500) was 54, the output value ([2]; sample C129, cut-off 500) was 247 and the output value ([2]; sample C133, cut-off 500) was 161. The output value ([2]; sample C148, cut-off 500) was 38, the output value ([2]; sample C152, cut-off 500) was 482 and the output value ([2]; sample C197, cut-off 500) was 590. The output value ([2]; sample C199, cut-off 500) was 296, the output value ([2]; sample C201, cut-off 500) was 110 and the output value ([2]; sample C213, cut-off 500) was 42. For the same molecule, the output value ([2]; sample C219, cut-off 500) was 92, the output value ([2]; sample C223, cut-off 500) was 666 and the output value ([2]; sample C230, cut-off 500) was 506. For the same molecule, the output value ([2]; sample C251, cut-off 500) was 106, the output value ([2]; sample C270, cut-off 500) was 962 and the output value ([2]; sample C276, cut-off 500) was 166. It also gave an output value ([2]; sample C307, cut-off 500) of 38, an output value ([2]; sample C371, cut-off 500) of 460 and an output value ([2]; sample C434, cut-off 500) of 35. The output value ([3]; sample C125, cut-off 500) was −19, the output value ([3]; sample C129, cut-off 500) was 48 and the output value ([3]; sample C133, cut-off 500) was 65. It also gave an output value ([3]; sample C148, cut-off 500) of −11, an output value ([3]; sample C152, cut-off 500) of 198 and an output value ([3]; sample C197, cut-off 500) of 313. The output value ([3]; sample C199, cut-off 500) was 283, the output value ([3]; sample C201, cut-off 500) was −12 and the output value ([3]; sample C213, cut-off 500) was 41. For the same molecule, the output value ([3]; sample C219, cut-off 500) was −48, the output value ([3]; sample C223, cut-off 500) was 284 and the output value ([3]; sample C230, cut-off 500) was 289. The output value ([3]; sample C251, cut-off 500) was 16, the output value ([3]; sample C270, cut-off 500) was 301 and the output value ([3]; sample C276, cut-off 500) was 11. The output value ([3]; sample C307, cut-off 500) was 41, the output value ([3]; sample C371, cut-off 500) was 270 and the output value ([3]; sample C434, cut-off 500) was −1.
